The source of these data is patent US12281149B2, “Modulators of G-protein coupled receptors” (priority 2021, dated 2025).

What all share (type): cell-based
The target of assay [1] is T1, GLP-1 receptor (Homo sapiens, UniProt P43220). The assay can be described thus: PathHunter β-arrestin assay, GLP-1 receptor. The arrangement: host or cells: PathHunter CHO-K1 GLP1R β-Arrestin Cell Line. As to conditions: β-arrestin-2 recruitment, PathHunter CHO-K1 GLP1R β-Arrestin Cell Line, 90 min at 37° C.; normalized to GLP-1; read-out: GLP-1R β Arrestin EC50.
T1 sequence (P43220 24-463): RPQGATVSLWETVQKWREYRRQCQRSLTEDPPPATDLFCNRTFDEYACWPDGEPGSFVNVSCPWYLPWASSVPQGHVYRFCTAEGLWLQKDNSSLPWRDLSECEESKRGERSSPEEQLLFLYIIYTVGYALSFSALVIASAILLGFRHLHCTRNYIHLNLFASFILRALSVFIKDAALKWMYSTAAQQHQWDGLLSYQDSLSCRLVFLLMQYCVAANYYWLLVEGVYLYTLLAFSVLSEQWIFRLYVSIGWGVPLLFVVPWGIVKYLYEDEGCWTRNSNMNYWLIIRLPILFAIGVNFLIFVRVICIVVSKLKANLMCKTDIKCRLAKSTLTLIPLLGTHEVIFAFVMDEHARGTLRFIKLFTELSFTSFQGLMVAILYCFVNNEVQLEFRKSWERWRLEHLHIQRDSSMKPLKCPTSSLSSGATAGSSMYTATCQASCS
The target of assay [2] is T2, GIP receptor (Homo sapiens, UniProt P48546).
T2 sequence (P48546 22-466): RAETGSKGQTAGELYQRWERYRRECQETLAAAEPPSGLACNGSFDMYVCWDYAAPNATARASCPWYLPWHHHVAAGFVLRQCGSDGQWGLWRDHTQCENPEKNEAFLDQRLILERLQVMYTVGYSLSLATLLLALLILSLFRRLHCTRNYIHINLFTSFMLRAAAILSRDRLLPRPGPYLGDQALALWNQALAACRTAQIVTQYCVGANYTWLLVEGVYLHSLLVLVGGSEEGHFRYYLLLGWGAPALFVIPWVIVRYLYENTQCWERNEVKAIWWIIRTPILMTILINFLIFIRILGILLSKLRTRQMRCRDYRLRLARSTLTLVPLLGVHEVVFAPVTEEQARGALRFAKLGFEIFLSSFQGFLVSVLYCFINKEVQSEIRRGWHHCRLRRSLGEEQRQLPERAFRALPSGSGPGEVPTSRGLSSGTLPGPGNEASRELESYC
The experiment in a line: PathHunter β-arrestin assay, GIP receptor. The arrangement: host or cells: PathHunter CHO-K1 GIPR β-Arrestin Cell Line. As to conditions: β-arrestin-2 recruitment, PathHunter CHO-K1 GIPR β-Arrestin Cell Line, 90 min at 37° C.; normalized to GIP; read-out: GIPR β Arrestin EC50.

The target of assay [3] is T2, GIP receptor. The assay can be described thus: HitHunter cAMP assay, GIP receptor. Particulars: for EC50: CHO cells stably expressing GIP receptor, cAMP accumulation, 30 min, read-out: EC50 GIP-1R; for Emax: CHO cells, cAMP, normalized to maximum signal from GIP (high) and DMSO (low), read-out: Emax GIP-1R.
In assay [4] the target is T1, GLP-1 receptor. The assay can be described thus: HitHunter cAMP assay, GLP-1 receptor. As to conditions: for EC50: CHO cells stably expressing human GLP-1 receptor, cAMP accumulation, 30 min, read-out: EC50 GLP-1R; for Emax: CHO cells, cAMP, normalized to maximum signal from GLP-1 (high) and DMSO (low), read-out: Emax GLP-1R.

*1 amine or outer side, *2 acyl side, *3 side chain or, on linkers, in order; H or OH if unused. Where a SMILES comes first, the peptide text is derived from it. Side-chain parts run from the residue outwards. [ ]: non-standard residue; d: D form. The star is where a group is joined. C20 diacid = O=C(O)CCCCCCCCCCCCCCCCCCC(=O)*; αMePhe(2-F) = C[C@](N)(Cc1ccccc1F)C(=O)O; γGlu = O=C(O)[C@H](CCC(=O)[*:2])N[*:1]; Phe(2-F) = N[C@@H](Cc1ccccc1F)C(=O)O; X36 = O=C(C1(c2ccc(Cl)cc2)CCCCC1)*; X62 = O=C(C1(c2cccc(Cl)c2)CCCC1)*; X4 = O=C(C(F)(F)c1ccc(F)cc1)*; X60 = O=C(C1(c2cccnc2)CCCC1)*; AEEA = NCCOCCOCC(=O)O; Aib = CC(C)(N)C(=O)O; βAla = NCCC(=O)O

On to `CC[C@H](C)[C@H](NC(=O)[C@H](CO)NC(=O)[C@H](Cc1ccc(O)cc1)NC(=O)[C@H](CC(=O)O)NC(=O)[C@H](CO)NC(=O)[C@@H](NC(=O)[C@H](Cc1ccccc1)NC(=O)[C@@H](NC(=O)CNC(=O)[C@H](CCC(=O)O)NC(=O)CCNC(=O)[C@]1(c2ccccc2)CNC(=O)C1)[C@@H](C)O)[C@@H](C)O)C(=O)N[C@@H](Cc1ccc(O)cc1)C(=O)N[C@@H](CC(C)C)C(=O)N[C@@H](CC(=O)O)C(=O)N[C@@H](CCCCN)C(=O)N[C@@H](CCC(N)=O)C(=O)N[C@@H](C)C(=O)N[C@@H](C)C(=O)NC(C)(C)C(=O)N[C@@H](CCC(=O)O)C(=O)N[C@@H](Cc1ccccc1)C(=O)N[C@H](C(=O)N[C@@H](CCCCNC(=O)COCCOCCNC(=O)COCCOCCNC(=O)CC[C@H](NC(=O)CCCCCCCCCCCCCCCCCCC(=O)O)C(=O)O)C(=O)N[C@@H](Cc1c[nH]c2ccccc12)C(=O)N[C@@H](CC(C)C)C(=O)N[C@@H](CC(C)C)C(=O)N[C@@H](C)C(=O)NCC(=O)NCC(=O)N1CCC[C@H]1C(=O)N[C@@H](CO)C(=O)N[C@@H](CO)C(=O)NCC(=O)N[C@@H](C)C(=O)N1CCC[C@H]1C(=O)N1CCC[C@H]1C(=O)N1CCC[C@H]1C(=O)N[C@@H](CO)C(N)=O)C(C)C` (single isomer, unassigned) [Compound 102], for which the concentration giving a half-maximal response (EC50) at GLP-1 receptor [1] was greater than 1 µM; on GIP receptor [2], greater than 1 µM; on GIP receptor [3], 0.001 to 0.01 µM; at GLP-1 receptor [4], 0.0001 to 0.001 µM. For the same compound, the maximum response (Emax) on GIP receptor [3] was 101%; at GLP-1 receptor [4], 91%.

Regarding `CC[C@H](C)[C@H](NC(=O)[C@H](CC(C)C)NC(=O)[C@H](Cc1c[nH]c2ccccc12)NC(=O)[C@H](CCC(N)=O)NC(=O)[C@@H](NC(=O)[C@H](Cc1ccccc1)NC(=O)[C@H](C)NC(=O)[C@H](CCCCNC(=O)COCCOCCNC(=O)COCCOCCNC(=O)CC[C@H](NC(=O)CCCCCCCCCCCCCCCCCCC(=O)O)C(=O)O)NC(=O)[C@H](CCC(N)=O)NC(=O)[C@H](C)NC(=O)[C@@H](NC(=O)[C@H](CCCCN)NC(=O)[C@H](CC(=O)O)NC(=O)[C@H](CC(C)C)NC(=O)C(C)(C)NC(=O)[C@@H](NC(=O)[C@H](CO)NC(=O)[C@H](Cc1ccc(O)cc1)NC(=O)[C@H](CC(=O)O)NC(=O)[C@H](CO)NC(=O)[C@@H](NC(=O)[C@H](Cc1ccccc1)NC(=O)[C@@H](NC(=O)CNC(=O)[C@H](CCC(=O)O)NC(=O)CCNC(=O)C1(c2ccc(Cl)cc2)CCCCC1)[C@@H](C)O)[C@@H](C)O)[C@@H](C)CC)[C@@H](C)CC)C(C)C)C(=O)N[C@@H](C)C(=O)NCC(=O)NCC(=O)N1CCC[C@H]1C(=O)N[C@@H](CO)C(=O)N[C@@H](CO)C(=O)NCC(=O)N[C@@H](C)C(=O)N1CCC[C@H]1C(=O)N1CCC[C@H]1C(=O)N1CCC[C@H]1C(=O)N[C@@H](CO)C(N)=O` [Compound 174] ({X36-βAla}-EGTFTSDYSI[Aib]LDKIAQK([AEEA-AEEA-γGlu-C20 diacid])AFVQWLIAGGPSSGAPPPS-NH2), the concentration for a half-maximal effect (EC50) on GLP-1 receptor [1] was greater than 1 µM; on GIP receptor [2], greater than 1 µM; on GIP receptor [3] it was 0.01 to 0.1 µM; at GLP-1 receptor [4], 0.01 to 0.1 µM. Further, the results for the Emax at GIP receptor [3] and on GLP-1 receptor [4] were 104% and 93%, respectively.

As for `CC[C@H](C)[C@H](NC(=O)[C@H](CC(C)C)NC(=O)[C@H](Cc1c[nH]c2ccccc12)NC(=O)[C@H](CCC(N)=O)NC(=O)[C@@H](NC(=O)[C@H](Cc1ccccc1)NC(=O)[C@H](C)NC(=O)[C@H](CCCCNC(=O)COCCOCCNC(=O)COCCOCCNC(=O)CC[C@H](NC(=O)CCCCCCCCCCCCCCCCCCC(=O)O)C(=O)O)NC(=O)[C@H](CCC(N)=O)NC(=O)[C@H](C)NC(=O)[C@@H](NC(=O)[C@H](CCCCN)NC(=O)[C@H](CC(=O)O)NC(=O)[C@H](CC(C)C)NC(=O)C(C)(C)NC(=O)[C@@H](NC(=O)[C@H](CO)NC(=O)[C@H](Cc1ccc(O)cc1)NC(=O)[C@H](CC(=O)O)NC(=O)[C@H](CO)NC(=O)[C@@H](NC(=O)[C@H](Cc1ccccc1)NC(=O)[C@@H](NC(=O)CNC(=O)[C@H](CCC(=O)O)NC(=O)CCNC(=O)C(F)(F)c1ccc(F)cc1)[C@@H](C)O)[C@@H](C)O)[C@@H](C)CC)[C@@H](C)CC)C(C)C)C(=O)N[C@@H](C)C(=O)NCC(=O)NCC(=O)N1CCC[C@H]1C(=O)N[C@@H](CO)C(=O)N[C@@H](CO)C(=O)NCC(=O)N[C@@H](C)C(=O)N1CCC[C@H]1C(=O)N1CCC[C@H]1C(=O)N1CCC[C@H]1C(=O)N[C@@H](CO)C(N)=O` [Compound 188] ({X4-βAla}-EGTFTSDYSI[Aib]LDKIAQK([AEEA-AEEA-γGlu-C20 diacid])AFVQWLIAGGPSSGAPPPS-NH2), the EC50 at GLP-1 receptor [1] was greater than 1 µM; on GIP receptor [2], greater than 1 µM; on GIP receptor [3] it was 0.01 to 0.1 µM; on GLP-1 receptor [4] it was 0.0001 to 0.001 µM. The Emax at GIP receptor [3] turned out to be 79%; on GLP-1 receptor [4], 91%.

Take `CC[C@H](C)[C@H](NC(=O)[C@H](CC(C)C)NC(=O)[C@H](Cc1c[nH]c2ccccc12)NC(=O)[C@H](CCC(N)=O)NC(=O)[C@@H](NC(=O)[C@H](Cc1ccccc1)NC(=O)[C@H](C)NC(=O)[C@H](CCCCNC(=O)COCCOCCNC(=O)COCCOCCNC(=O)CC[C@H](NC(=O)CCCCCCCCCCCCCCCCCCC(=O)O)C(=O)O)NC(=O)[C@H](CCC(N)=O)NC(=O)[C@H](C)NC(=O)[C@@H](NC(=O)[C@H](CCCCN)NC(=O)[C@H](CC(=O)O)NC(=O)[C@H](CC(C)C)NC(=O)C(C)(C)NC(=O)[C@@H](NC(=O)[C@H](CO)NC(=O)[C@H](Cc1ccc(O)cc1)NC(=O)[C@H](CC(=O)O)NC(=O)[C@H](CO)NC(=O)[C@@H](NC(=O)[C@](C)(Cc1ccccc1F)NC(=O)[C@@H](NC(=O)CNC(=O)[C@H](CCC(=O)O)NC(=O)CCNC(=O)C1(c2cccc(Cl)c2)CCCC1)[C@@H](C)O)[C@@H](C)O)[C@@H](C)CC)[C@@H](C)CC)C(C)C)C(=O)N[C@@H](C)C(=O)NCC(=O)NCC(=O)N1CCC[C@H]1C(=O)N[C@@H](CO)C(=O)N[C@@H](CO)C(=O)NCC(=O)N[C@@H](C)C(=O)N1CCC[C@H]1C(=O)N1CCC[C@H]1C(=O)N1CCC[C@H]1C(=O)N[C@@H](CO)C(N)=O` [Compound 179] ({X62-βAla}-EGT[αMePhe(2-F)]TSDYSI[Aib]LDKIAQK([AEEA-AEEA-γGlu-C20 diacid])AFVQWLIAGGPSSGAPPPS-NH2): the EC50 was greater than 1 µM on GLP-1 receptor [1], less than 1 µM on GIP receptor [2], 0.0001 to 0.001 µM on GIP receptor [3] and 0.0001 to 0.001 µM on GLP-1 receptor [4]. Moreover, the figures for the maximal response (Emax) at GIP receptor [3] and on GLP-1 receptor [4] were 106% and 100%, respectively.

Turning to `CC[C@H](C)[C@H](NC(=O)[C@H](CC(C)C)NC(=O)[C@H](Cc1c[nH]c2ccccc12)NC(=O)[C@H](CCC(N)=O)NC(=O)[C@@H](NC(=O)[C@H](Cc1ccccc1)NC(=O)[C@H](C)NC(=O)[C@H](CCCCNC(=O)COCCOCCNC(=O)COCCOCCNC(=O)CC[C@H](NC(=O)CCCCCCCCCCCCCCCCCCC(=O)O)C(=O)O)NC(=O)[C@H](CCC(N)=O)NC(=O)[C@H](C)NC(=O)[C@@H](NC(=O)[C@H](CCCCN)NC(=O)[C@H](CC(=O)O)NC(=O)[C@H](CC(C)C)NC(=O)C(C)(C)NC(=O)[C@@H](NC(=O)[C@H](CO)NC(=O)[C@H](Cc1ccc(O)cc1)NC(=O)[C@H](CC(=O)O)NC(=O)[C@H](CO)NC(=O)[C@@H](NC(=O)[C@H](Cc1ccccc1F)NC(=O)[C@@H](NC(=O)CNC(=O)[C@H](CCC(=O)O)NC(=O)CCNC(=O)C1(c2cccnc2)CCCC1)[C@@H](C)O)[C@@H](C)O)[C@@H](C)CC)[C@@H](C)CC)C(C)C)C(=O)N[C@@H](C)C(=O)NCC(=O)NCC(=O)N1CCC[C@H]1C(=O)N[C@@H](CO)C(=O)N[C@@H](CO)C(=O)NCC(=O)N[C@@H](C)C(=O)N1CCC[C@H]1C(=O)N1CCC[C@H]1C(=O)N1CCC[C@H]1C(=O)N[C@@H](CO)C(N)=O` [Compound 231] ({X60-βAla}-EGT[Phe(2-F)]TSDYSI[Aib]LDKIAQK([AEEA-AEEA-γGlu-C20 diacid])AFVQWLIAGGPSSGAPPPS-NH2), the EC50 was greater than 1 µM on GLP-1 receptor [1], greater than 1 µM at GIP receptor [2], 0.0001 to 0.001 µM at GIP receptor [3] and 0.0001 to 0.001 µM on GLP-1 receptor [4]. Further, the figures for the maximal response (Emax) on GIP receptor [3] and at GLP-1 receptor [4] were 110% and 111%, respectively.
